Test results from patent US11685744B2, “CDK inhibitors and their use as pharmaceuticals” (Prelude Therapeutics, Incorporated, priority 2020, dated 2023).

Legend:
CDK4/Cyclin D1 = CDK4/Cyclin D1 (Homo sapiens (Human), UniProt P11802); assay: CDK4/CyclinD1 enzymatic activity assay (TR-FRET); format: biochemical; settings: ATP 2 mM, read-out: CDK4_D1 IC50
Procedure, shortened: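 Insect-cell CDK4/Cyclin D1 (1 nM) with ULight-4E-BP1 (100 nM) and 2 mM ATP in HEPES pH 7.4 buffer, preincubated 20 min with compound (9-dose, 3-fold dilutions); 10 mM MgCl2 started the reaction, run 60 min at 37 °C. EDTA/Eu-anti-phospho-4E-BP1 TR-FRET detection; IC50 from 4-parameter Hill fit.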

CDK6/Cyclin D1 = CDK6/Cyclin D1 (Homo sapiens (Human), UniProt Q00534); assay: CDK6/CyclinD1 enzymatic activity assay (TR-FRET); format: biochemical; settings: ATP 250 μM, read-out: CDK6_D1 IC50
Sequence of CDK6/Cyclin D1 (Q00534 whole entry): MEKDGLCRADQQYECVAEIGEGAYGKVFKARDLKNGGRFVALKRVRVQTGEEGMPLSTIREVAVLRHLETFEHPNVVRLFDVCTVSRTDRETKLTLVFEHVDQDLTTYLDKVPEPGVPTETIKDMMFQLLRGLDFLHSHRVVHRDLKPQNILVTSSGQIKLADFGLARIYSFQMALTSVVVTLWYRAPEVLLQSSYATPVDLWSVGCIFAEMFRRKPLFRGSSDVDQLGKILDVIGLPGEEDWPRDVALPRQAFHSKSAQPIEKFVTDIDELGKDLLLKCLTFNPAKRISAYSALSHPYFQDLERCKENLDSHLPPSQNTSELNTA
Sequence of CDK6/Cyclin D1 (P24385 whole entry partner): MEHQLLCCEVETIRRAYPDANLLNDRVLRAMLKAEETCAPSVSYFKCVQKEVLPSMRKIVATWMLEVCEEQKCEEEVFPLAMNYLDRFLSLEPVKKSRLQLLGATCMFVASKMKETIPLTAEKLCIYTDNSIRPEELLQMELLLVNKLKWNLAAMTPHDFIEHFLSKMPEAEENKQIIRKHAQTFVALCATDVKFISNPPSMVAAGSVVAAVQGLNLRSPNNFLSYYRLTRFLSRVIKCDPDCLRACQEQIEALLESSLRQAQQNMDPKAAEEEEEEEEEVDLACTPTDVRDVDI
Experimental: CDK6/CyclinD1 Enzymatic Activity Assay
The inhibitory activity of compounds was evaluated in vitro using TR-FRET assay with white 384-well low volume microplate (Greiner Bio-One). CDK6/Cyclin D1 catalyzed phosphorylation of peptide in the presence and absence of compounds was measured and used in IC50 determination. Recombinant protein complex CDK6/Cyclin D1, expressed from insect cell, was purchased from ProQinase. Testing compounds were dissolved in DMSO at 0.1 mM and tested in 9-dose IC50 mode. The reaction mixture was prepared by mixing CDK6/Cyclin D1 (1 nM final), ULight-4E-BP1 (100 nM final, Perkinelmer, TRF0128-D), and ATP (250 μM final) in assay buffer (20 mM of HEPES pH 7.4, 1 mM of EGTA, 0.05% BSA, 0.005% Tween 20, and 1 mM TCEP). The compound of interest in DMSO was added to each well in 3-fold serial dilution by dispenser (TECAN D300E). After 20 minutes preincubation at room temperature, 0.1 μL MgCl2 (10 mM final) was added to initiate the reaction. Following a 60 minutes incubation at 37° C., the reaction was stopped by addition of 2 μL of quenching buffer consisting of Lance detection buffer (Perkinelmer CR97-100C), 2 nM LANCE Ultra Europium-anti-P-4E-BP1 (Perkinelmer, TRF0216-D), 10 mM EDTA, and incubate at room temperature for additional 60 minutes in dark. The reaction signal was measured by Envision multimode plate reader (PerkinElmer, 2102-0010). IC50 values were determined by fitting the data to the standard 4 parameters with Hill Slope using GraphPad Prism software.

[1] = system: MCF7 adenocarcinoma cell line; assay: Cell proliferation studies in MCF7 cells (ATP-Lite, 10 days); format: cell-based; settings: Homo sapiens, 240 h, read-out: PROLIFERATION_CTG_MCF7 IC50
Procedure, shortened: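 Cells were seeded at 100 or 200 per well in DMEM with 10% FBS and dosed in quadruplicate over a 9-point 3-fold dilution. Incubation lasted 10 days at 37 °C, with media exchange and re-dosing on day 5. Viability was read by ATP-Lite luminescence and normalised to background and DMSO, giving IC50.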

[2] = Brain-to-plasma ratio (Kp) determination in Sprague-Dawley rats; settings: male, rat, po, 10 mg/kg
Experimental: The brain-to-plasma ratio (Kp) was determined in male Sprague-Dawley rats (7-9 weeks old) four hours after a single oral dose. Rats were acclimated and given free access to standard rodent chow and water throughout the entire study. Test articles were formulated as a solution at 0.3, 0.4, 0.5, or 1.0 mg/mL in a vehicle comprised of 10:15:75 (v:v:v) dimethylacetamide (DMA):Solutol HS15:water and delivered orally at a rate of 10 mL/kg to three rats to achieve final doses of 3, 4, 5, or 10 mg/kg, respectively. At 4 hours post-dose, blood samples were collected via jugular vein cannula into tubes containing K2EDTA as the anticoagulant and stored on ice. Blood samples were then centrifuged at 4° C. at 6000 rpm for 5 minutes, and the resulting plasma was placed into tubes and stored frozen at −80° C. until analysis. Whole brain samples were also collected at 4 hours post-dose. The weight of each brain was measured and recorded, and samples were immediately stored on dry ice. Brain samples were then transferred to storage at −80° C. until analysis.
Prior to analysis, brain samples were combined with water (4 mL/1 gram of brain) and homogenized. Prior to injection, plasma and brain homogenate samples and standards were prepared for analysis by precipitation with acetonitrile or 1:1 (v:v) methanol:acetonitrile. Samples were then thoroughly mixed, centrifuged at 4000 rpm for 15 minutes, and the resulting supernatant was transferred for analysis. Test article concentrations in plasma and brain homogenate were then determined by LC-MS/MS and quantified against calibration standards prepared to known concentrations in matched blank (analyte-free) biological matrix. The Kp was then determined by dividing the dilution-corrected brain concentration by the plasma concentration from each rat. A brain density of 1 gram/mL was assumed for all calculations.

[3] = brain (homogenate) versus plasma

Sequence of CDK4/Cyclin D1 (P11802 whole entry): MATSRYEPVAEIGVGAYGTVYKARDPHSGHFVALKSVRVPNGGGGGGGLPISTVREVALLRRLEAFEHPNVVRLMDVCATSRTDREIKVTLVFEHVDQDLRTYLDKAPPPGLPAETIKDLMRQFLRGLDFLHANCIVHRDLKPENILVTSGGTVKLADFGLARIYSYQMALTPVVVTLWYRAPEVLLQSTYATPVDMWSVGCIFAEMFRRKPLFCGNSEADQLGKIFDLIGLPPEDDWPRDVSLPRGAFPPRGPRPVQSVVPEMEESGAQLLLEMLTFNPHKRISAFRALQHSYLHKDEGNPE
Sequence of CDK4/Cyclin D1 (P24385 whole entry partner): as the sequence (P24385 whole entry partner) above

Structure (SMILES)	IC50 (CDK4/Cyclin D1)	IC50 (CDK6/Cyclin D1)	IC50 [1]	Kp at 4 h [2, 3]	Kp at 4 h ([2]; brain / plasma)
CCN1CCN(c2ccc(Nc3ncc(F)c(-c4sc5c(nc(C)n5C5CCCC5)c4C)n3)nc2)CC1 [Example 1, 4-(3-Cyclopentyl-2,6-dimethyl-3H-thieno[2,3-d]imidazol-5-yl)-N-(5-(4-ethylpiperazin-1-yl)pyridin-2-yl)-5-fluoropyrimidin-2-amine]	≤ 20 nM	20 to 200 nM	20 to 200 nM	1 to 3	
CCN1CCN(c2ccc(Nc3ncc(F)c(-c4sc5c(nc(C)n5C(C)C)c4C)n3)nc2)CC1 [Example 2, N-(5-(4-Ethylpiperazin-1-yl)pyridin-2-yl)-5-fluoro-4-(3-isopropyl-2,6-dimethyl-3H-thieno[2,3-d]imidazol-5-yl)pyrimidin-2-amine]	≤ 20 nM	≤ 20 nM	≤ 20 nM	1 to 3	
CCN1CCN(Cc2ccc(Nc3ncc(F)c(-c4sc5c(nc(C)n5C(C)C)c4C)n3)nc2)CC1 [Example 3, N-(5-((4-Ethylpiperazin-1-yl)methyl)pyridin-2-yl)-5-fluoro-4-(3-isopropyl-2,6-dimethyl-3H-thieno[2,3-d]imidazol-5-yl)pyrimidin-2-amine]	≤ 20 nM	20 to 200 nM	20 to 200 nM	< 1	
CCN1CCN(c2ccc(Nc3ncc(F)c(-c4sc5c(nc(C)n5C5CCC5)c4C)n3)nc2)CC1 [Example 4, 4-(3-Cyclobutyl-2,6-dimethylthieno[2,3-d]imidazol-5-yl)-N-[5-(4-ethylpiperazin-1-yl)pyridin-2-yl]-5-fluoro-pyrimidin-2-amine]	≤ 20 nM	≤ 20 nM	20 to 200 nM	1 to 3	
Cc1c(-c2nc(Nc3ccc(N4CCN(C)CC4)cn3)ncc2F)sc2c1nc(C)n2C(C)C [Example 9, 5-Fluoro-4-(3-isopropyl-2,6-dimethyl-3H-thieno[2,3-d]imidazol-5-yl)-N-(5-(4-methylpiperazin-1-yl)pyridin-2-yl)pyrimidin-2-amine]	≤ 20 nM	≤ 20 nM	≤ 20 nM	1 to 3	
CCN1CC2(C1)CN(c1ccc(Nc3ncc(F)c(-c4cc5nccc(C(C)C)c5s4)n3)nc1)C2 [Example 23, N-[5-(6-Ethyl-2,6-diazaspiro[3.3]heptan-2-yl)pyridin-2-yl]-5-fluoro-4-(7-propan-2-ylthieno[3,2-b]pyridin-2-yl)pyrimidin-2-amine]	≤ 20 nM	20 to 200 nM	20 to 200 nM	> 3	
CCN1CCN(c2ccc(Nc3ncc(F)c(-c4cc5c(s4)c(C(C)C)cc[n+]5[O-])n3)nc2)CC1 [Example 50, N-[5-(4-Ethylpiperazin-1-yl)pyridin-2-yl]-5-fluoro-4-(4-oxido-7-propan-2-ylthieno[3,2-b]pyridin-4-ium-2-yl)pyrimidin-2-amine]	≤ 20 nM	≤ 20 nM	≤ 20 nM	1 to 3	
Cc1c(-c2nc(Nc3ccc(N4CCN(C)CC4)cn3)ncc2F)sc2c(C(C)C)cn(C)c(=O)c12 [Example 51, 2-[5-Fluoro-2-[[5-(4-methylpiperazin-1-yl)pyridin-2-yl]amino]pyrimidin-4-yl]-3,5-dimethyl-7-propan-2-ylthieno[3,2-c]pyridin-4-one]	≤ 20 nM	≤ 20 nM	20 to 200 nM		> 3
CCN1CC2(C1)CN(c1ccc(Nc3ncc(F)c(-c4sc5c(nc(C)n5C(C)C)c4C)n3)nc1)C2 [Example 52, 4-(2,6-Dimethyl-3-propan-2-ylthieno[2,3-d]imidazol-5-yl)-N-[5-(6-ethyl-2,6-diazaspiro[3.3]heptan-2-yl)pyridin-2-yl]-5-fluoropyrimidin-2-amine]	≤ 20 nM	≤ 20 nM	≤ 20 nM	1 to 3	
CCN1CCN(C(=O)c2ccc(Nc3ncc(F)c(-c4cc5nc(C)n(C(C)C)c5s4)n3)nc2)CC1 [Example 54, (4-Ethylpiperazin-1-yl)-[6-[[5-fluoro-4-(2-methyl-3-propan-2-ylthieno[2,3-d]imidazol-5-yl)pyrimidin-2-yl]amino]pyridin-3-yl]methanone]	≤ 20 nM	20 to 200 nM	20 to 200 nM	< 1	
